Source: ChEMBL document CHEMBL4507291 (2021)

How the values were obtained:
[1] = tested on: Proto-oncogene tyrosine-protein kinase receptor Ret (Homo sapiens), P07949 [V804M]
[2] = target: Serine/threonine-protein kinase WNK4 (Homo sapiens) (UniProt Q96J92)
[3] = target: Maternal embryonic leucine zipper kinase (Homo sapiens) (UniProt Q14680)
[4] = target: Mitogen-activated protein kinase 11 (Homo sapiens) (UniProt Q15759)
[5] = target: Mitogen-activated protein kinase kinase kinase 1 (Homo sapiens) (UniProt Q13233)
[6] = target: T1, Inhibitor of nuclear factor kappa-B kinase subunit beta (Homo sapiens) (UniProt O14920)
T1 sequence (whole entry): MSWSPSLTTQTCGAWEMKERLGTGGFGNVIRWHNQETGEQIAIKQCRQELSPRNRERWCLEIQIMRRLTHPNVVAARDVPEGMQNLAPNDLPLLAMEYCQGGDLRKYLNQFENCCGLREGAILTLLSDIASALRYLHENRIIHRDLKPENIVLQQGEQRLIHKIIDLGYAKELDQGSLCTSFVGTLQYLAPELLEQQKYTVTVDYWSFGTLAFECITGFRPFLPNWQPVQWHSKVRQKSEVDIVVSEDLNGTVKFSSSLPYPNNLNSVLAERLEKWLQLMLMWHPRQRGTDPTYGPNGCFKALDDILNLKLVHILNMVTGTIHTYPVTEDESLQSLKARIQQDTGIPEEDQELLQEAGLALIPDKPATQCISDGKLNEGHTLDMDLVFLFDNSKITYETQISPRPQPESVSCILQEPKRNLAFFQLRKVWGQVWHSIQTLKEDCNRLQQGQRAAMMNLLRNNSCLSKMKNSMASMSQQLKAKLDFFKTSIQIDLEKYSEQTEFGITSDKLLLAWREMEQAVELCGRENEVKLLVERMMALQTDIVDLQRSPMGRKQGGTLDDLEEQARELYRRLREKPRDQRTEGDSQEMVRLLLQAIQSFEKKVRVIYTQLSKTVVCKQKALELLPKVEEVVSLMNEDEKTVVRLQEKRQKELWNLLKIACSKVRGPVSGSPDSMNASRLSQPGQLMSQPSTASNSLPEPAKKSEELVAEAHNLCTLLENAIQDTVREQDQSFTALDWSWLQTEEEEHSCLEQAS

[7] = target: Tyrosine-protein kinase Fes/Fps (Homo sapiens) (UniProt P07332)
[8] = target: T2, Alpha-2A adrenergic receptor (Homo sapiens) (UniProt P08913); details: Compound concentration 10.0 uM
T2 sequence (whole entry): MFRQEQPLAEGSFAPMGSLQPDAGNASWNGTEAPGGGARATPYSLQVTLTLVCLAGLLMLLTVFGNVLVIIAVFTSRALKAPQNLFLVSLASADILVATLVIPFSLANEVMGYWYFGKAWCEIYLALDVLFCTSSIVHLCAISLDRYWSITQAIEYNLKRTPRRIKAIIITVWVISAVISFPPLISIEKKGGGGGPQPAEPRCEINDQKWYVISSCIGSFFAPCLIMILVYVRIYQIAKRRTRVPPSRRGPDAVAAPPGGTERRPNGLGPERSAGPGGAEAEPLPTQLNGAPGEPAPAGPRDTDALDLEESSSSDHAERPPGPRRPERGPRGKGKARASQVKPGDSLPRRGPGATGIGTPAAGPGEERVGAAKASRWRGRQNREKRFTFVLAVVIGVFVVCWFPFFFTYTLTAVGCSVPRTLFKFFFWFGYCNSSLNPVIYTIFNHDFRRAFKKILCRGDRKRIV

[9] = target: T3, Serine/threonine-protein kinase Nek1 (Homo sapiens) (UniProt Q96PY6)
T3 sequence (whole entry): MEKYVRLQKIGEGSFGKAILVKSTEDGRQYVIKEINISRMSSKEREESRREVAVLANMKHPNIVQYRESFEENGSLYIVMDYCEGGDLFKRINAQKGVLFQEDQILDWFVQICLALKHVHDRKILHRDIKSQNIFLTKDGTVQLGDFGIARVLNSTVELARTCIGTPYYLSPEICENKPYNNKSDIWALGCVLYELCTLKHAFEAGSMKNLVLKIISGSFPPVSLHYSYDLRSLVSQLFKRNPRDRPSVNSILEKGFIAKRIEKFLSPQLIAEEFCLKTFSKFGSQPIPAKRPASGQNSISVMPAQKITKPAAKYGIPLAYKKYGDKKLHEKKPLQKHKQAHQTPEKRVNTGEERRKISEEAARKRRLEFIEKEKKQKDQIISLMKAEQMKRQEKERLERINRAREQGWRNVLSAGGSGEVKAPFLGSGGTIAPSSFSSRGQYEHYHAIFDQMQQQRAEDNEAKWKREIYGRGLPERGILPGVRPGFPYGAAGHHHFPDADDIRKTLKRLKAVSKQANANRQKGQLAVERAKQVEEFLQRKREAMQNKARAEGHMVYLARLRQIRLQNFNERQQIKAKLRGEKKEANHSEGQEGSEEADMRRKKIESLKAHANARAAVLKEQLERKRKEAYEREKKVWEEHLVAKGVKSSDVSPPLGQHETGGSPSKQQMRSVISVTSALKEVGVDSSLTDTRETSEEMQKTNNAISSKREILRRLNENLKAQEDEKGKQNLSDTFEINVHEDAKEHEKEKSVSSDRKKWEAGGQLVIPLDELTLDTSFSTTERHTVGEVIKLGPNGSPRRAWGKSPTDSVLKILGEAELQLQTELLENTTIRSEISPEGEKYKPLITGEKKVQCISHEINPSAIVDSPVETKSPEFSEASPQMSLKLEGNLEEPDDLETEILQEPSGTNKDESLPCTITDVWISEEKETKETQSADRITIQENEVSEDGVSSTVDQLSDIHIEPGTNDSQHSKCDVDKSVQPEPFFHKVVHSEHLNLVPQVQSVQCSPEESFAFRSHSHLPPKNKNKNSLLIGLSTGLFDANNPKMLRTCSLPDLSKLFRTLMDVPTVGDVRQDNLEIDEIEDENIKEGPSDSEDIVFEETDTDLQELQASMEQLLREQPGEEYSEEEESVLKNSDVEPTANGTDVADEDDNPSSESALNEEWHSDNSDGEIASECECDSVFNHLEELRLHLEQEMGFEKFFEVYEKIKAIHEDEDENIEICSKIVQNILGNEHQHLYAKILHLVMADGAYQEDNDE

[10] = tested on: Mast/stem cell growth factor receptor Kit (Homo sapiens), P10721 [A829P]
Chain of Mast/stem cell growth factor receptor Kit (Homo sapiens), P10721 [A829P] (P10721 whole entry A829P): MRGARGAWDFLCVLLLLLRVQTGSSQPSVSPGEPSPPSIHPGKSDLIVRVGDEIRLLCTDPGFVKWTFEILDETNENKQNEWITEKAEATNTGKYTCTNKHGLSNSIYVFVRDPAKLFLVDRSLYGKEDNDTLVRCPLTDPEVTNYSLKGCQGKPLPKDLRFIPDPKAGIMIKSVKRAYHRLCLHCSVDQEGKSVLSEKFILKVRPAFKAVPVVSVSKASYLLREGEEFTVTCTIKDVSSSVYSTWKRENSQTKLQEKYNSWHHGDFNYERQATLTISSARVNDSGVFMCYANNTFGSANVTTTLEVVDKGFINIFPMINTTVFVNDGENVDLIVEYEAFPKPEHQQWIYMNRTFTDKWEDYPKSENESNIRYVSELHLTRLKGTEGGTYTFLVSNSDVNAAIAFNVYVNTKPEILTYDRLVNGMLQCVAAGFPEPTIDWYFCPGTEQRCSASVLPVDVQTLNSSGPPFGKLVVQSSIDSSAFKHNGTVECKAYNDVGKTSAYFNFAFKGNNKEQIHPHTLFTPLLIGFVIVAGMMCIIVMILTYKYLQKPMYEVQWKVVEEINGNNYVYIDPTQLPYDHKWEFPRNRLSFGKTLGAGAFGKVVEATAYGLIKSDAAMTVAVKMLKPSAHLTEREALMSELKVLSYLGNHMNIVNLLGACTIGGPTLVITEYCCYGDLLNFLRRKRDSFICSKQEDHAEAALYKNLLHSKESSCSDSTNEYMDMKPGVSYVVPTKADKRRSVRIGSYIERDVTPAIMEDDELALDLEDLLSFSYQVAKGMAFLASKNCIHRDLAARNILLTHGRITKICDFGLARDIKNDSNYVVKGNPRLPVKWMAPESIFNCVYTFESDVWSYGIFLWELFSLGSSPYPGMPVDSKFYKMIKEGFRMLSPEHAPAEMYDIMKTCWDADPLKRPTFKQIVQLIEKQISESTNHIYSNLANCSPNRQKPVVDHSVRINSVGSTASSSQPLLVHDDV

[11] = target: Tyrosine-protein kinase CSK (Homo sapiens) (UniProt P41240)
Chain of Tyrosine-protein kinase CSK (Homo sapiens) (P41240 2-450 limits assumed): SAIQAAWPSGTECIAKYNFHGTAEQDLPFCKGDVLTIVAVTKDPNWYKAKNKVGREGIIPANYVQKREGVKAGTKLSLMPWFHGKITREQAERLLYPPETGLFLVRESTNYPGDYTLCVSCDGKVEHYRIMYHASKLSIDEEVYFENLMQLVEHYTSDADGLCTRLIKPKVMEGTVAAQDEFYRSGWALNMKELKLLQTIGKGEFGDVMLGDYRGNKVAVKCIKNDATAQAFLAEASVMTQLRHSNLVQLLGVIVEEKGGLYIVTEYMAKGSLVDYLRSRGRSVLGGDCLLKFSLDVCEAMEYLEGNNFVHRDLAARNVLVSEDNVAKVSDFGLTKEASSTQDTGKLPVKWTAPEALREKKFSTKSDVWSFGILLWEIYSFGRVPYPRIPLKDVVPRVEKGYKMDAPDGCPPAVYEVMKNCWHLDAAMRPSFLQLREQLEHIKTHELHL

[12] = Compound concentration 1000.0 nM
[13] = Compound concentration 100.0 nM

Chain of Mitogen-activated protein kinase 11 (Homo sapiens) (Q15759 whole entry): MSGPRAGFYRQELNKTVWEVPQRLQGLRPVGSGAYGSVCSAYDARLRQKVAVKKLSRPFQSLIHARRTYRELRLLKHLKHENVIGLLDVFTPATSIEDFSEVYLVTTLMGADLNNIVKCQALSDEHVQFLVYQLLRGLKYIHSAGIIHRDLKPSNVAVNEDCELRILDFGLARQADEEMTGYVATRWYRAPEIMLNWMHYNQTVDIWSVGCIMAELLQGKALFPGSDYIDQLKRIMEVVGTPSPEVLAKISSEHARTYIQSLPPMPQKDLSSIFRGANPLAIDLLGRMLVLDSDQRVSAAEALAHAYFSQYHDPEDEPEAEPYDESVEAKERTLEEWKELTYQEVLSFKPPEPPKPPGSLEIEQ
Chain of Serine/threonine-protein kinase WNK4 (Homo sapiens) (Q96J92 whole entry): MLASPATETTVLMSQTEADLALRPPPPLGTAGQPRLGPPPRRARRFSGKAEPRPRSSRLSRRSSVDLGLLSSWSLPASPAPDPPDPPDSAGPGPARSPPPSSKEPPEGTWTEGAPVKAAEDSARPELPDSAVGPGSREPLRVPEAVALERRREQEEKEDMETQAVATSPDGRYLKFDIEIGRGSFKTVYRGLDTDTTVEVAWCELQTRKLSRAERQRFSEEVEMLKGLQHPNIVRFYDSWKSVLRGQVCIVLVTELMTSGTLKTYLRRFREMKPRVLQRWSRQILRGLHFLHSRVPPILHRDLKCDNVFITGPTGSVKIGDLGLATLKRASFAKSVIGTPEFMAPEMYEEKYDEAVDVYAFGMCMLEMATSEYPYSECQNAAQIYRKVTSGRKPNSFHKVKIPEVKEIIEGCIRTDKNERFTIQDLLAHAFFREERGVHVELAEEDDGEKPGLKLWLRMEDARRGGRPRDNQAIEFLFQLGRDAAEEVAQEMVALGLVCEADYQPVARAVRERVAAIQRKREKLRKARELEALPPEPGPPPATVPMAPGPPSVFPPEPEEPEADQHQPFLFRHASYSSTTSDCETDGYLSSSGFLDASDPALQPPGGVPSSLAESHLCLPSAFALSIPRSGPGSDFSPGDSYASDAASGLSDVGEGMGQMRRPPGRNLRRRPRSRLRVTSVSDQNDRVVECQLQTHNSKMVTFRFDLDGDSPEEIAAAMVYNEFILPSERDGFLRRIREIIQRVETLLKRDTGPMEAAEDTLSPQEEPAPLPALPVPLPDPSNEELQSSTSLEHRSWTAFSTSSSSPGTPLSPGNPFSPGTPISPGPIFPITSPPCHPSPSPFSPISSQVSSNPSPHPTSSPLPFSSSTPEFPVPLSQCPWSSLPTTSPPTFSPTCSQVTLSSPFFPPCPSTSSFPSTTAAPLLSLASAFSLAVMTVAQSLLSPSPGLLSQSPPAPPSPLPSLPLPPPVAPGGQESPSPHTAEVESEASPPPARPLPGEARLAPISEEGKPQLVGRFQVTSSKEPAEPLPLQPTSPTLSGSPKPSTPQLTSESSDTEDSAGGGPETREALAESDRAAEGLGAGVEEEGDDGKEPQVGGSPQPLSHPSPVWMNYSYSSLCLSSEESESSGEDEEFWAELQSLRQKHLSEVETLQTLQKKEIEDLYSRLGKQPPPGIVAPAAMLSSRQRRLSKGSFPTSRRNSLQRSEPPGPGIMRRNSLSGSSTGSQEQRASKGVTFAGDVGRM
Chain of Maternal embryonic leucine zipper kinase (Homo sapiens) (Q14680 whole entry, looked up): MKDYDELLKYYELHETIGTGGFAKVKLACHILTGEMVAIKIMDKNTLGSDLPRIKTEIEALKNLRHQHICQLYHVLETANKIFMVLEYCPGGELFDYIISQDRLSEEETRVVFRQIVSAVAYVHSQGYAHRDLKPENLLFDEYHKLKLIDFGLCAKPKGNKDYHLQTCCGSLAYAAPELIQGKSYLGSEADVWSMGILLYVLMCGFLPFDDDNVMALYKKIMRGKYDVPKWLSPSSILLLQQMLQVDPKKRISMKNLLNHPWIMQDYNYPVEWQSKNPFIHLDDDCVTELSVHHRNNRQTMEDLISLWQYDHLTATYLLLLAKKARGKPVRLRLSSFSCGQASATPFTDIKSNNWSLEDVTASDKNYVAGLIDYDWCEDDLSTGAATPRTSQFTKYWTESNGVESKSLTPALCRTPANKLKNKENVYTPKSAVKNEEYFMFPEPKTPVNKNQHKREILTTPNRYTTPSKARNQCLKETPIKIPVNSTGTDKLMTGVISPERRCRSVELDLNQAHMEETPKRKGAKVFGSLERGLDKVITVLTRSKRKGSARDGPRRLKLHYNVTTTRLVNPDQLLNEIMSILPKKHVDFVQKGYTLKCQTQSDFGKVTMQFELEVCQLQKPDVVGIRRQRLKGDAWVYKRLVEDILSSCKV
Chain of Proto-oncogene tyrosine-protein kinase receptor Ret (Homo sapiens), P07949 [V804M] (P07949 whole entry V804M): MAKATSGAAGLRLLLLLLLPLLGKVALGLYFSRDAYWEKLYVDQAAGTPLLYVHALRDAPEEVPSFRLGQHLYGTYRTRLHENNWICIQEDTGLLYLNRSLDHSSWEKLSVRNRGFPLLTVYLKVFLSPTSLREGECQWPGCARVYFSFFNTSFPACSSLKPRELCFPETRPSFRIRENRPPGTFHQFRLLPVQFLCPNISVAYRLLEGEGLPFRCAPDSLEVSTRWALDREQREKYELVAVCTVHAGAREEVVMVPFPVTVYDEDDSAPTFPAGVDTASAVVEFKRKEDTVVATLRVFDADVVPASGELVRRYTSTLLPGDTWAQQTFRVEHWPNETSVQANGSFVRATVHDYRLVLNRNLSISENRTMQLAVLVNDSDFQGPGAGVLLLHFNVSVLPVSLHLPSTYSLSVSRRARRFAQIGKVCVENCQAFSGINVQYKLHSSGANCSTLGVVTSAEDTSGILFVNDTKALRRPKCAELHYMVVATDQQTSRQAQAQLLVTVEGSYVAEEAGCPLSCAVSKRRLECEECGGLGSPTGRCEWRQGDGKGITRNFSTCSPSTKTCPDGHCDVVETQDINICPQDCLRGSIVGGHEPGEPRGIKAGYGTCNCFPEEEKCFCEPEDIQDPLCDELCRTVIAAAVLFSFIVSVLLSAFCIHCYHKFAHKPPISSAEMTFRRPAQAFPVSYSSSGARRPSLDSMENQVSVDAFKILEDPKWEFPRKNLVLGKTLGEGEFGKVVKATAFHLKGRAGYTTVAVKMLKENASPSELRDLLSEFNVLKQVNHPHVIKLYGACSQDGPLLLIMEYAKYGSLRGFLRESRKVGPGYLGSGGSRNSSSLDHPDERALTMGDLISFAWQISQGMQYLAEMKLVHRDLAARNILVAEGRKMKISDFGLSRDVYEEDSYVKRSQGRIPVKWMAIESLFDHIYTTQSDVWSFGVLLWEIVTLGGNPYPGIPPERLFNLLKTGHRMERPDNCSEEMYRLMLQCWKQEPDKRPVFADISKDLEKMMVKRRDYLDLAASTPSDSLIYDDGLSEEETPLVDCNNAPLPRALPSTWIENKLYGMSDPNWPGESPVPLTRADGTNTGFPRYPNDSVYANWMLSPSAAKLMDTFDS

C[C@@H]1CN(c2cc(-c3nn(C)c4ccc(OC5(C)CC5)cc34)ncn2)C[C@H](C)O1 [MLi-2-NC]
inactive: residual activity [1, 12] 100% | residual activity [2, 12] 60% | residual activity [3, 12] 55% | residual activity [4, 12] 88% | residual activity [5, 12] 92% | residual activity [6, 12] 76% | residual activity [7, 12] 93% | inhibition [8] 12.9% | residual activity [9, 12] 83% | residual activity [10, 12] 60% | residual activity [11, 12] 100%

C[C@@H]1CN(c2cc(-c3n[nH]c4ccc(OC5(C)CC5)cc34)ncn2)C[C@H](C)O1 [MLi-2]
inactive: residual activity [1, 13] 97% | residual activity [2, 13] 94% | residual activity [3, 13] 88% | residual activity [4, 13] 89% | residual activity [5, 13] 63% | residual activity [6, 13] 84% | residual activity [7, 13] 87% | inhibition [8] -2.84% | residual activity [9, 13] 100% | residual activity [10, 13] 62% | residual activity [11, 13] 100%
